Experimental data: US20240158359A1, “HYDROLYSIS-RESISTANT ESTERS FOR DRUG AND IMAGING AGENT DELIVERY” (The Board of Trustees of the University of lllinois, priority 2022, published 2024)

Columns and labels:
NTR = NTR (Escherichia coli, UniProt P38489)
Protocol: Dose-dependence Activation of BL660-NTR (FIG. 4a) by NTR: The response of BL660-NTR (5 μM) against different concentrations of NTR was measured in a 96-well culture plate and was monitored using the IVIS imaging system. BL660-NTR was incubated with either 0.01 U or 0.1 U NTR at 37° C. for 15 min before the wells were treated with ATP-MgSO4 and luciferase to initiation bioluminescence production. Light was collected immediately after mixing, and the signal enhancement was determined relative to control wells not treated with enzyme. The total volume of each well was 100 μL (PBS (pH 7.4) with 0.5% DMSO). All data is reported as the mean±standard deviation (n=5).

A549 cells [1] = assay: MTT cytotoxicity assay of BL660-NTR; format: cell-based; conditions: 0 to 20 μM, up to 3 hours
Protocol: Prior to testing BL660-NTR in vivo, we assessed potential cytotoxicity by treating A549 cells with BL660-NTR across a concentration range of 0 to 20 μM for up to 3 hours.
MTT Cytotoxicity Assay. 24-well plates were seeded with 180,000 cells per well (500 μL of 360,000 cells/mL) and incubated at 37° C. with 5% CO2 for 24 h (˜70% confluent). Media was removed and fresh RPMI 1640 media with 10% FBS containing 0, 5, 10 or 20 μM BL660-NTR (1% DMSO final v/v) was added. The media was removed after 1 and 3 h and replaced with 500 μL of a 20:1 mixture of FBS-free RPMI 1640 and (3-(4,5-dimethylthiazol-2-yl)-2,5-diphenyl-tetrazolium bromide (MTT, 5 mg/mL stock in PBS). The cells were incubated for 2 h under the same conditions and then the medium was removed and replaced with DMSO (500 μL/well). The absorbance of each well was recorded after a 1:5 dilution in DMSO at 555 nm on a microplate reader. Viability was calculated by the absorbance relative to the vehicle control. Values are reported as the mean±standard deviation (n=3).

A549 cells [2] = assay: Detection of NTR activity in A549 lung cancer cells cultured in hypoxia or normoxia, lysate BL imaging; format: cell-based
Protocol: Next, we performed a cell imaging study to measure hypoxia within a living system. Specifically, A549 cells (not expressing Luc) were cultured in an atmosphere consisting of 1% or 20% oxygen for 2 days to mimic hypoxic conditions (1%) or normoxic (20%), respectively. Because aryl nitro reduction mediated by mammalian NTRs can be inhibited by molecular oxygen, we expect there to be greater probe activation under oxygen-deficient conditions. After incubating with BL660-NTR for 60 minutes, the cells were washed with fresh PBS, detached, pelleted, and lysed via sonication. The lysates were then transferred to 24-well plates, treated with luciferase and imaged immediately using the IVIS imaging system. […] This represents a significant 4.5-fold difference in BL intensity.
A549 cells were seeded in T75 culture flasks and incubated in 1% or 20% oxygen atmosphere for 48 hours. A solution of BL660-NTR in DMSO (2 mM, 50 μL) was quickly added into each flask such that the final concentration of the probe is 10 μM and 0.5% DMSO. The cells were incubated with the probe for 60 minutes (under the respective culture conditions), washed with fresh PBS, and detached from the culture flasks. The cells were then transferred to a 15 mL centrifuge tube and pelleted at 1000 rpm for 5 min at room temp. The cells (4.25×10^6 cells/mL) were then resuspended in PBS along with 10% protease inhibitor solution (1 protease inhibitor mini tablet per 10 mL PBS, Pierce, Thermo Fisher Scientific) and sonicated on ice for 2.5 minutes (pulse 01, 01, 40%). The cell debris was removed via centrifugation at 4° C. The cell lysates were further diluted 2.5-fold by PBS and 475 μL were transferred into 24-well plates (n=4 for each condition), treated with luciferase (25 μL, 0.25 mg/mL), and imaged immediately using the IVIS imaging system. Bioluminescence light was collected in open mode (no filters were applied). ROIs were drawn around each well. The signal intensity was quantified using the Living Image Analysis Software.

A549-Luc2 tumors = assay: BL imaging of tumor hypoxia in a lung cancer model; format: in vivo, NU/J mice; conditions: for BL signal in the tumors (in words): 5 to 75 min after retroorbital injection; for BL signal in the tumors (in words) / total luminescent count in tumors after 15 mins: 2.2 μmol/kg; for total luminescent count in tumors after 15 mins: NU/J mice with A549-Luc2 tumors
Protocol: NU/J mice (male, ˜5-weeks old) were inoculated with A549-Luc2 lung cancer cells (5×10^6) in both flanks. Testing of BL660-NTR commenced after tumors had grown to a volume of ˜300 mm^3 (˜4 weeks). First, we performed imaging using BL660-NTR, which was administered systemically via retroorbital injection (ROI) (FIG. 5a (upper horizontal row of points) and FIG. 14). ROIs were drawn around each tumor and the luminescent count was summed for each animal. […] The BL intensity appears to decrease slightly after 15 mins and levels off until the end of the experiment (75 mins) (FIG. 5c).
Next, to distinguish between NTR activation and off-target ester hydrolysis, we employed Compound (4) as a control reagent, which only differs in that the nitro trigger is absent (FIG. 1a). After approximately 20 hours, the same animals were treated with Compound (4) and imaged (FIG. 5b and FIG. 15). This delay was to ensure the probe had fully cleared from the first experiment. […] The total luminescent count after 15 mins for Compound 4 was only 4.0±0.7×10^3; whereas the corresponding readout was 16.6±2.5×10^3 for BL660-NTR. This represents a […] difference, indicating successful detection of tumor hypoxia (FIG. 5d).
NU/J mice bearing A549-Luc2 tumors were anesthetized using isoflurane (1-3% for maintenance; up to 5% for induction) in oxygen from a precision vaporizer. After testing to ensure animals are fully under anesthesia, an initial background scan is recorded. BL660-NTR or compound 4 formulated in 3:7 v/v DMSO:PBS. The solution was filtered through a […] sterile filter immediately prior to use. The typical injection volume is ˜100 μM at a dose of 2.2 μmol/kg. The solution was then administered via retroorbital injection. Images were captured using the IVIS® imaging system at 5, 15, 30, 45, 60, and 75 minutes after injection. Bioluminescence light was collected in open mode (no filters were applied). Regions of interest (“ROIs”) were drawn around each tumor and summed for each animal. The signal intensity was quantified using the Living Image Analysis Software and is represented in FIGS. 5c and 5d.
Generation of a Subcutaneous Lung Cancer Model: A549 cells were treated with vehicle (media only) or 50 μM DETA NONOate in media for 10 days. Cells were washed with PBS, resuspended in serum-free media (Hams F-12K), and mixed 1:1 with Geltrex (v/v) (to a final concentration of 5×10^7 cells/mL). Tumors were generated by subcutaneously injecting 100 μL of these cell solutions into the flanks of 4-week-old Nu/J mice (The Jackson Laboratory stock #: 002019).
BL660-NTR was dissolved in DMSO and diluted with PBS (3:7 v/v DMSO:PBS). The solution was filtered through a […] sterile filter immediately prior to use. The typical injection volume is ˜100 μM at a dose of 2.2 μmol/kg.
Compound 4 was dissolved in DMSO and diluted with PBS (3:7 v/v DMSO:PBS). The solution was filtered through a […] sterile filter immediately prior to use. The typical injection volume is ˜100 μM at a dose of 2.2 μmol/kg.

[3] = 5 μM, 50 equiv analyte, 37° C., 30 min
Protocol: For instance, transition metals like Cu(II) can facilitate ester hydrolysis via Lewis acid-mediated ester activation. Additionally, various reactive oxygen and nitrogen that can interact with the ester bond were also tested. Lastly, we also examined reactive sulfur species, which are known to reduce aryl nitro groups.
Analyte Selectivity Assay for BL660-NTR. […] Light was collected within 15 min after mixing, and the signal enhancement was determined relative to control wells not treated with analyte. The total volume of each well was 100 μL [PBS (pH 7.4) with 0.5% DMSO]. Metal ion solutions were prepared by dissolving in MilliQ H2O before use. Superoxide anion was added as a solution of potassium superoxide in DMSO. Hydroxide radical was generated according to the previously reported literature. Similarly, peroxynitrite was prepared according to the reported literature. NO was generated in situ from a solution of DEA-NONOate in degassed PBS buffer. Glutathione reduced form was maintained at the final concentration of 5 mM in the reaction mixture. H2S was generated just before use according to the reported literature. NTR was used one unit per well. All other analytes were prepared by dilution or dissolution from commercially available sources.

[4] = Hydrolytic stability of BL660 esters in PBS, luciferase BL readout; format: physicochemical; conditions: PBS pH 7.4, 37° C.; versus Compound (1)
Protocol: We began our analysis of stability by incubating BL660 esters of Compound (1), Compound (2), and Compound (3) at 37° C. in PBS (phosphate-buffered saline) (pH 7.4). After 1, 6, and 12 hours, luciferase was added (10mU, 37° C., pH 7.4) to initiate BL production. The rate of hydrolysis, reported as total luminescence counts per hour, indicates hydrolysis in descending order is: Compound (1) (13.9±1.4×10^3); Compound (2) (3.3±0.6×10^3), and Compound (3) (1.0±0.1×10^3) (FIG. 1b, wherein the esters are indicated on the horizontal axis) and FIG. 8 (wherein the respective timeline plots are identified beneath the horizontal axis as (1), (2), etc.). Luminescent counts were recorded using an IVIS In Vivo Imaging System. […] Without wishing to be bound by any theory, we speculate hydrolysis of (3) may involve an SN1 mechanism, thus favoring formation of a double benzylic carbocation.

porcine liver esterase = assay: Esterase reactivity: treatment with porcine liver esterase, BL readout; format: in vitro ADME; conditions: porcine liver esterase 0.1 units/mL; versus Compound (1)
Text: The enzymatic rates, reported as total luminescence counts per minute, in descending order are: Compound (1) (31.0±6.8×10^2), (3) (9.5±1.2×10^2), and (2) (0.6±0.1×10^2) (FIG. 1c and FIG. 9). The greater stability imparted by the aromatic ring is not surprising since esterase reactivity can be readily attenuated with bulkier substituents.

[5] = Hydrolytic stability of Compound (4) in Britton-Robinson buffer at pH 5, 7.4 and 9; format: physicochemical; conditions: 10 μM
Protocol: (§1) Following this set of experiments, we subjected Compound (4) to acidic (pH 5) and alkaline (pH 9) conditions to account for the various pH gradients in the body. For these experiments we used the Britton-Robinson buffer system. […] These include lipase, human carboxyesterase-2, monoacylglycerol lipase, fatty acid amide hydrolase, and aldehyde dehydrogenase 1A1.
Compound (4) (10 μM final concentration with 1% DMSO) was first incubated in Britton-Robinson buffer (pH 5, 7.4 and 9) at 37° C. for 2, 3 and 4 hrs. Then the pH's were adjusted to 7.4. Luminescence was measured by blocking excitation light and measuring emissions with 660 nm gating. Total volume of the reaction mixture was maintained at 100 μL. To the 50 μL of this reaction mixture was ATP-MgSO4 (45 μL, prepared by mixing 17.78 mM ATP-Mg and 35.56 mM MgSO4 in 1:1 ratio in PBS buffer) and the reaction was initiated with Luciferase (5 μL, 0.25 mg/mL in PBS containing 10% glycerol).

[6] = tested on: lipase, human carboxyesterase-2, monoacylglycerol lipase, fatty acid amide hydrolase, and aldehyde dehydrogenase 1A1; assay: Enzyme selectivity assay for Compound 4 against panel of ester-cleaving enzymes; format: in vitro ADME; conditions: 5 μM, 10 mU of each enzyme (ALDH 1A1 100 nM), 37° C.
Protocol: as §1
Enzyme Selectivity Assay for Compound 4. […] Compound 4 was incubated with 10 mU of each enzyme at 37° C. for 30 min before ATP-MgSO4 and luciferase were added to initiate bioluminescence production. […] ALDH 1A1 was used at a final concentration of 100 nM.

4T1-Luc cells = assay: Ester stability in live 4T1-Luc cells, BL imaging; format: cell-based, murine; conditions: 10 μM, 30 mins at 37° C.
Protocol: First, we prepared BL660-Me, a methyl ester derivative of BL660 as shown in FIG. 2a for comparison to the benzyl ester (4) of FIG. 1a. Next, we cultured 4T1 murine breast cancer cells, stably expressing the luciferase enzyme (4T1-Luc). The cells were then treated with a DMSO (dimethyl sulfoxide) vehicle control, BL660-Me or Compound (4) (FIG. 3a and FIG. 10a, b, c respectively?). Imaging was performed using the IVIS In Vivo Imaging System.
4T1-Luc cell was cultured in phenol red-free RPMI 1640 (ATCC) with 10% fetal bovine serum (FBS, Sigma Aldrich), and 1% penicillin/streptomycin (Corning).
Evaluation of BL660-Me and 4 in 4T1-Luc Cells. 4T1-Luc cells (180K) were seeded into 24-well plates and incubated for 24 hours. The cells were ˜85% confluent. The media was removed and replaced with serum-free RPMI 1640. An initial background scan was recorded on an IVIS imaging system in open mode where no filters were applied. Cells were then treated with DMSO (2.5 μL, 0.5%), BL660-Me, or compound 4 in DMSO (10 μM final concentration). After 30 minutes incubation at 37° C., bioluminescence was collected. ROIs were drawn around each well. The total luminescence count for each well for a given condition was averaged. The signal intensity was quantified using the Living Image Analysis Software.

[7] = 15 mins after retroorbital injection

Chain of NTR (P38489 whole entry): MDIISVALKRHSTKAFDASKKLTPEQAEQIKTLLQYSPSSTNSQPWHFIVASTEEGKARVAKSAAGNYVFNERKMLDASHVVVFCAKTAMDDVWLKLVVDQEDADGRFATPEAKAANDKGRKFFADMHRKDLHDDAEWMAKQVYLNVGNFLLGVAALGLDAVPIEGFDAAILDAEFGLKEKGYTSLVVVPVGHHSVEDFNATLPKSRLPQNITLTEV

resistance to hydrolysis relative to the parent benzyl ester [4] | esterase stability relative to the parent benzyl ester (porcine liver esterase) | activation on exposure to ester-cleaving enzymes [6] | SMILES | total luminescence signal, NTR absent (NTR; BL660-NTR 5 μM and luciferase without NTR) | total luminescence count, probe, NTR and luciferase all present (NTR; BL660-NTR 5 μM, NTR 0.1 units, luciferase 0.0125 mg/mL) | cell viability (A549 cells [1]) | difference in BL intensity, hypoxic versus normoxic (A549 cells [2]; 1% versus 20% oxygen) [fold] | total luminescent counts, hypoxic lysates (A549 cells [2]; A549 cells in 1% oxygen for 2 days, 10 μM probe 60 minutes) | total luminescent counts, normoxic lysates (A549 cells [2]; A549 cells in 20% oxygen for 2 days, 10 μM probe 60 minutes) | BL signal in the tumors (in words) (A549-Luc2 tumors) | difference in total luminescent count, BL660-NTR versus Compound 4 (A549-Luc2 tumors; [7]) [fold] | total luminescent count in tumors after 15 mins (A549-Luc2 tumors; [7]) | activation by analytes compared to the NTR positive control [3] [%] | rate of hydrolysis at pH 5.0 ([5]; Britton-Robinson buffer pH 5.0, 37° C., 2, 3 and 4 hrs) | rate of hydrolysis at pH 7.4 ([5]; Britton-Robinson buffer pH 7.4, 37° C., 2, 3 and 4 hrs) | rate of hydrolysis at pH 9.0 ([5]; Britton-Robinson buffer pH 9.0, 37° C., 2, 3 and 4 hrs) | total luminescence count (4T1-Luc cells)
– | – | – | CCN(CC)c1ccc(C=CC=CC2=NC(C(=O)OC(c3ccc([N+](=O)[O-])cc3)C(C)C)CS2)cc1 (stereo not shown) [BL660-NTR] | significantly attenuated | notable increase in the total luminescence count | No loss of cell viability | 4.5 | 5.0±0.1×10^5 total luminescent counts | 1.1±0.03×10^5 total luminescent counts | strong BL signals were apparent in all tumors | 5.2 | 16.6±2.5×10^3 total luminescent count | ≤ 10 | – | – | – | –
about 140 fold | about 68 fold | minimal activation | CCN(CC)c1ccc(C=CC=CC2=NC(C(=O)OC(c3ccccc3)C(C)C)CS2)cc1 (stereo not shown) [Compound (4)] | – | – | – | – | – | – | barely discernable from background | – | 4.0±0.7×10^3 total luminescent count | – | 25.7±9.6×10^2 total luminescence counts per hour | 8.6±1.3×10^2 total luminescence counts per hour | 52.8±20.7×10^2 total luminescence counts per hour | 3.1±1.2×10^3 total luminescence count
